The values that follow come from patent EP3822285A1, “VARIANT NISIN PEPTIDES” (University College Cork-National University of Ireland, Cork, priority 2019, dated 2021).

One test has as its system S. aureus 513. The test is described as follows: Minimum inhibitory concentration assay. It counts as cell-based. The following applies: purified peptide. How it is done:
(§1) Minimum inhibitory concentration determinations were carried out in triplicate in 96 well microtitre plates. 96 well microtitre plates were pre-treated with bovine serum albumin (BSA) prior to addition of the peptides. Briefly, to each well of the microtitre plate 200 µL of phosphate buffered saline (PBS) containing 1% (w/v) bovine serum albumin (PBS/BSA) was added and incubated at 37°C for 30 min. The wells were washed with 200 µL PBS and allowed to dry. Target strains were grown overnight in the appropriate conditions and medium, subcultured into fresh broth and allowed to grow to an OD600 of ∼0.5, diluted to a final concentration of 10^5 cfu ml^-1 in a volume of 0.2 ml. The lyophilised peptides were resuspended in the appropriate media to a stock concentration of 30 µM. Wild type nisin and nisin mutant peptides were adjusted to a 7.5 or 5.0 µM or 500 nM starting concentration and 2-fold serial dilutions of each peptide were made in 96 well plates for a total of 12 dilutions.
(§2) To confirm that the observed enhanced activity of the nisin variants was due to increased specific activity, the activity of purified peptides were assessed using classical broth-based minimum inhibitory concentration (MIC) determination assays. […] Also included were the lactic acid bacteria targets L. lactis MG1363, L. lactis spp. lactis HP, B. longum UCC44b and Lb acidophilus ATCC 4356.

The test system of a further test is S. aureus DPC 5245. The test is described as follows: Minimum inhibitory concentration assay. It counts as cell-based. Conditions: purified peptide. How it is done:
as §1, §2

The test system of another test is S. aureus 272. Kind of test: Minimum inhibitory concentration assay. It counts as cell-based. The following applies: purified peptide. How it is done: as §1, §2
A further test deals with S. aureus 5971. Kind of test: Minimum inhibitory concentration assay. Format: cell-based. Conditions: purified peptide. How it is done:
as §1, §2

The test system of a further test is S. aureus ST534(MRSA). Kind of test: Minimum inhibitory concentration assay. It counts as cell-based. Conditions: S. aureus ST534(MRSA); purified peptide. As to the method: as §1, §2
The subject of the next test is S. aureus ST528(MRSA). The test is described as follows: Minimum inhibitory concentration assay. Format: cell-based. Conditions: S. aureus ST528(MRSA); purified peptide. As to the method:
as §1, §2

The subject of the next test is S. aureus DPC 5243. Kind of test: Minimum inhibitory concentration assay. It counts as cell-based. Conditions: purified peptide. As to the method:
as §1, §2

The subject of test [1] is L. lactis HP. The test is described as follows: Minimum inhibitory concentration assay. Format: cell-based. How it is done:
as §1, §2

The next test deals with S. aureus DPC 5247. Kind of test: Minimum inhibitory concentration assay. Conditions: purified peptide. It counts as cell-based. As to the method:
as §1, §2

Test [2] concerns S. aureus RF122. The test is described as follows: Deferred antagonism assay. It counts as cell-based. Conditions: producing strain. How it is done:
(§3) Mutagenesis of the nisA gene was carried out as described previously (Field et al., 2008). Briefly, saturation mutagenesis was carried out using pDF05 (pCI372-nisA) as template and using oligonucleotides containing an NNK codon in place of each native codon. PCR amplification was performed in a 50 µl reaction containing approximately 0.5 ng of target DNA (pDF05), 1 unit Phusion High-Fidelity DNA polymerase (Finnzymes, Finland), 1 mM dNTPs and 500 ng each of the appropriate forward and reverse oligonucleotide. The reaction was pre-heated at 98°C for 2 min, and then incubated for 29 cycles at 98°C for 30 s, 55°C for 15 s and 72°C for 3 min 30 s, and then finished by incubating at 72°C for 3 min 30 s. Amplified products were treated with Dpn1 (Stratagene) for 60 min at 37°C to digest template DNA and purified using the QIAquick PCR purification kit. Following transformation of E. coli Top 10 cells plasmid DNA was isolated and sequenced using primers pCI372FOR (5' […] 3') and pCI372REV (5' […] 3') to verify that mutagenesis had taken place. Approximately 150 transformants were chosen at random for each position and inoculated into 96-well plates containing GM17 chloramphenicol, incubated overnight and stored at -20°C after addition of 80% glycerol. Deferred antagonism assays were performed by replicating strains on GM17 agar plates and allowing them to grow overnight before overlaying with BHI agar (0.75% w/v agar) seeded with the appropriate indicator strain.
(§4) Previously, site-saturation mutagenesis-based strategies were used to generate strains producing bioengineered nisin derivatives in which all residues not involved in lanthionine ring formation (i.e. I1, T2, 14, S5, L6, P9, G10, K12, G14, A15, L16, M17, G18, N20, M21, K22, A24, H27, S29 130, H31, V32, S33 and K34) were each randomised to potentially all other natural amino acids, or whereby all three residues of the hinge-region (NMK) were randomised simultaneously (Rouse et al., 2012, Healy et al., 2013, Field et al., 2008). […] From this screen 76 variants of interest from the first round of screening were incorporated into a "mini-bank" for subsequent further analysis. The number of indicator strains was increased from five to thirteen to include S. uberis 43382, S. uberis DPC5344, S. dysgalactiae ATCC43078, L. lactis 303, L. cremoris KH, Lactobacillus bulgaricus NCDO2489, Lb. helveticus 2079 and Lb. acidophilus ATCC4356 (Table 1). Following this second round of screening, 6 variants of interest were deemed worthy of closer inspection. DNA sequencing of the mutated nisin gene as well as mass spectrometric analysis of the peptide produced by each strain established that these corresponded to nisin M17Q (methionine at position 17 altered to glutamine), nisin T2L (threonine 2 leucine) nisin HTK, VGA, VGV or VGT (where the hinge residues Asn-Met-Lys have been altered to His-Thr-Lys, Val-Gly-Ala, Val-Gly-Val or Val-Gly-Thr respectively). […] As a result, these derivatives were eliminated from this study, but will be the subject of further investigation as potential anti-mastitis antimicrobials. […] In the case of the derivatives nisin T2L and nisin HTK, the activity appeared reduced and equivalent to nisin A respectively (Figure 1), while improved activity was observed by both derivatives against S. agalactiae ATCC13813 and S. aureus RF122 (Table 2). On this basis, the nisin derivatives M17Q, T2L and HTK were selected for purification and specific activity assays. Purified peptides were subjected to Mass Spectrometry to confirm the correct mass in each case. In the case of T2L and HTK derivatives, the threonine remained in the unmodified form (data not shown).

A further test has as its system S. agalactiae ATCC13813. The test is described as follows: Deferred antagonism assay. Format: cell-based. The following applies: producing strain. How it is done:
as §3, §4

The subject of test [3] is L. lactis HP. Kind of test: Deferred antagonism assay. The following applies: producing strain. It counts as cell-based. As to the method: as §3, §4
The test system of test [4] is L. lactis MG1363. Kind of test: Deferred antagonism assay. It counts as cell-based. The following applies: producing strain. How it is done:
as §3, §4

The subject of another test is B. longum UCC 44b. It counts as cell-based. As to the method: as §1, §2
Test [5] relates to Lb. acidophilus ATCC 4356. It counts as cell-based. How it is done: as §1, §2
The test system of the next test is S. aureus 54072. It counts as cell-based. How it is done: as §1, §2
The subject of test [6] is S. aureus RF122. Format: cell-based. How it is done:
as §1, §2

Another test relates to S. aureus 20777. It counts as cell-based. How it is done: as §1, §2
The subject of a further test is S. aureus NCDO1499. It counts as cell-based. How it is done: as §1, §2
The test system of test [7] is L. lactis MG1363. Format: cell-based. As to the method: as §1, §2
The next test has as its system S. aureus strains. Kind of test: Minimum inhibitory concentration assay, panel of S. aureus strains. It counts as cell-based. The following applies: panel of 12 S. aureus isolates; compared to nisin A. How it is done:
as §1, §2

The conditions of test [8]: positive charge at position 17 replacing Methionine; Wiedemann et al., 2001; cited from earlier work.

Values after ≈ are worked out from the molar mass of the structure shown. Values joined by “and” are separate entries in the source; they are usually repeats but may differ in a detail not shown here. Equal values may be shown once.

Turning to `C=C(NC(=O)[C@@H](NC(=O)[C@H](Cc1c[nH]cn1)NC(=O)[C@@H](NC(=O)[C@H](CO)NC(=O)[C@@H]1CS[C@@H](C)[C@H]2NC(=O)[C@H](C)NC(=O)[C@H](NC(=O)[C@H](CCCCN)NC(=O)[C@@H](NC(=O)[C@H](Cc3c[nH]cn3)NC(=O)[C@@H]3CS[C@@H](C)[C@@H](NC(=O)[C@H](CCCCN)NC(=O)[C@@H]4CS[C@@H](C)[C@@H](NC(=O)[C@@H]5CSC[C@@H](NC(=O)/C(=C/C)NC(=O)[C@@H](N)[C@@H](C)CC)C(=O)N[C@@H]([C@@H](C)CC)C(=O)NC(=C)C(=O)N[C@@H](CC(C)C)C(=O)N5)C(=O)N5CCC[C@H]5C(=O)NCC(=O)N4)C(=O)NCC(=O)N[C@@H](C)C(=O)N[C@@H](CC(C)C)C(=O)N[C@@H](CCSC)C(=O)NCC(=O)N3)[C@@H](C)O)[C@H](C)SC[C@H](NC2=O)C(=O)N[C@@H](Cc2c[nH]cn2)C(=O)N1)[C@@H](C)CC)C(C)C)C(=O)N[C@@H](CCCCN)C(=O)O` [HTK, nisin HTK], the “Specific activity (MIC)” value in the test with S. aureus 513 is 6 Mg/L and 1.875 µM; in the test on S. aureus DPC 5245, 1 Mg/L and 0.312 µM; in the test on S. aureus 272, 6 Mg/L and 1.875 µM; in the test with S. aureus 5971, 12.57 Mg/L and 3.75 µM; with S. aureus ST534(MRSA), 1 Mg/L and 0.312 µM; in the test on S. aureus ST528(MRSA) it was 0.25 Mg/L and 0.078 µM. Moreover, the “Specific activity (MIC)” value in the test with S. aureus DPC 5243 is 1 Mg/L and 0.312 µM; in the test with L. lactis HP [1] (purified peptide), 0.4 Mg/L and 0.125 µM; with S. aureus DPC 5247, 1 Mg/L and 0.312 µM; in test [5] (purified peptide) it was 0.12 Mg/L and 0.044 µM. Further, in the test on L. lactis HP [1] (compared to wild-type nisin A), the “fold reduction in potency” value came out at 2 fold. Also, the “zone of inhibition (area of the zone of inhibition minus the area of the spot)” value with S. aureus RF122 [2] turned out to be 106.66 ± 3.00 mm2; with S. agalactiae ATCC13813, 148.14 ± 3.66 mm2; in the test with L. lactis HP [3], 230.58 ± 6.71 mm2; in the test with L. lactis MG1363 [4] it was 137.70 ± 5.40 mm2. For the same compound, the MIC against B. longum UCC 44b was determined as 0.24 mg/L (≈ 0.0717 µM); in test [5], 0.12 mg/L (≈ 0.0359 µM); against S. aureus 54072 it was 0.25 mg/L (≈ 0.0747 µM); with S. aureus RF122 [6] it was 1 mg/L (≈ 0.299 µM); against S. aureus 20777, 0.125 mg/L (≈ 0.0373 µM); in the test with S. aureus NCDO1499, 0.03 mg/L (≈ 0.00896 µM). The MIC against L. lactis MG1363 [7] is reported as 0.4 mg/L (≈ 0.12 µM). Moreover, in the test on B. longum UCC 44b, the “fold decreased activity compared to wild type peptide” value worked out at 4 fold. Moreover, in [5], the “fold reduction in specific activity compared to wild type nisin A” value is reported as 4 fold. The “number of S. aureus strains with enhanced specific activity” value with S. aureus strains is reported as 6.

Take Nisin Z M17K: in test [8], the “antimicrobial activity reduced to” value was 50%.

What is called MIC is the smallest concentration in the dilution series that meets the test's criterion for growth inhibition. A lower MIC goes with inhibition by little substance.
